Assay [1] has as its system RS4;11 cells. Nature of the assay: AML cell proliferation inhibitory activity (CellTiter-Glo). The settings on record: Homo sapiens, 72 hours. The assay is classed as cell-based. As to the method: (§1) The inhibitory activities of the example compounds according to the present invention on the proliferation of acute myeloid leukemia (AML) cells expressing the FLT3 mutant gene were evaluated. Specifically, RS4;11 and MV4-11 cells as acute myeloid leukemia cells expressing the FLT3 mutant gene were cultured in RPMI-1640 (Invitrogen) adding 10% FBS. The cells were seeded into each well of a clear bottom white 96-well plate (Corning) at 3000 to 5000 cells 24 hours before compound treatment. The compound was diluted in DMSO (diluted each three-fold, to a total of 12 concentrations) and injected at 0.5 μL each so as to be a final concentration of 0.3 nM to 50 μM. After 72 hours of the compound treatment, they were treated with CellTiter-Glo Luminescent Cell Viability assay (Promega) and stored at room temperature for 10 minutes, and luminescence intensities were measured with a reader (SynergyNeo, Biotek) to count viable cells. Each experiment was performed three times repeatedly. The result values were calculated as the cell growth rate (%) compared to the control treated with the solvent. The graph was derived using the GraphPad Prism program (version 5.0), the GI50 (nM) values were calculated, and the results were shown in Table 3 below.
For orientation: Cellular ATP, detected with luciferase, serves as a proxy for viable cell number.

Assay [2] relates to MV4-11 cells. The description is as above. In kind it is cell-based. Conditions: Homo sapiens, 72 hours. As to the method: as §1
Assay [3] concerns the target T1, human FLT3-ITD enzyme (Homo sapiens, UniProt P36888).
T1 sequence (P36888 1-993): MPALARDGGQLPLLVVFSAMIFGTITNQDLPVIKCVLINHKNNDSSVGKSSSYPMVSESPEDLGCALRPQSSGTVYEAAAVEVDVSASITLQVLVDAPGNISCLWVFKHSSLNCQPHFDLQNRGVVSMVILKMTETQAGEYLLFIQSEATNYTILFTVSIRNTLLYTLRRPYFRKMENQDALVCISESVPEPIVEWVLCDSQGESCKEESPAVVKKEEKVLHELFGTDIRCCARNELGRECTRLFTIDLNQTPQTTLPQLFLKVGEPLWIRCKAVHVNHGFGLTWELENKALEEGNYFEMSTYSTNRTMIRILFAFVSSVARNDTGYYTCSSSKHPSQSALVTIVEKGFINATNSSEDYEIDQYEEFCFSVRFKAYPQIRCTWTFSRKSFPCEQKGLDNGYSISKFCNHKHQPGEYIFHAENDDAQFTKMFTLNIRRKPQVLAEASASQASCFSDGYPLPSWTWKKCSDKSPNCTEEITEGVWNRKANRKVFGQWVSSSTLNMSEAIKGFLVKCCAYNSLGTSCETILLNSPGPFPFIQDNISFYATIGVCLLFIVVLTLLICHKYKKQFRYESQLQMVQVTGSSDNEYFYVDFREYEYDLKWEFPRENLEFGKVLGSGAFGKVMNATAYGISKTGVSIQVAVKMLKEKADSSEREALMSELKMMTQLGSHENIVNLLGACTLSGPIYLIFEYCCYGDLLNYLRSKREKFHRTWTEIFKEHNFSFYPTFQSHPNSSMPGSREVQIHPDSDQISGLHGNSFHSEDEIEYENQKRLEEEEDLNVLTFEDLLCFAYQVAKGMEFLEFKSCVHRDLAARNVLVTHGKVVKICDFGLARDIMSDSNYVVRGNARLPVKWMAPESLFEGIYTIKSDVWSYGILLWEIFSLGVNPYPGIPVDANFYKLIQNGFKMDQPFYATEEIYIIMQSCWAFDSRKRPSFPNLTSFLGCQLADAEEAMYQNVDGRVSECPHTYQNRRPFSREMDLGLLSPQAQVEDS
The experiment in a line: FLT3 enzyme inhibitory ability (ADP-Glo kinase assay). The assay is classed as biochemical. The settings on record: human FLT3-ITD enzyme 10 ng, ATP 10 μM, 25° C. 1 hour. The essentials: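 Purified human FLT3-ITD (10 ng) with 10 μM ATP and specific substrate in 40 mM Tris-HCl pH 7.4, 20 mM MgCl2, 0.5 mg/mL BSA, 50 μM DTT, 1 h at 25 °C. ADP formation read by ADP-Glo luminescence; IC50 (nM) versus solvent-treated control.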
Background: ADP-Glo first removes unused ATP, then detects ADP through luciferase.

Assay [4] concerns MCF-7 cells. The experiment in a line: Breast cancer cell line proliferation inhibitory activity (CellTiter-Glo 2.0). The assay is classed as cell-based. Conditions: Homo sapiens, MCF7, 120 hours. The essentials:
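MCF-7 cells exposed to a 12-point, 3-fold dilution series (final 0.00005–10 μM) for 120 h at 37 °C. Viability read by CellTiter-Glo 2.0 luminescence, expressed as percent of vehicle-treated cells. GI50 (nM) derived from the curves.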

Assay [5] has as its target T2, human GST-HPK1 (1-346) (Homo sapiens, UniProt Q92918).
T2 construct: purified human GST-HPK1 (1-346, Signalchem) enzyme; purchased Signalchem
T2 sequence (Q92918 1-346): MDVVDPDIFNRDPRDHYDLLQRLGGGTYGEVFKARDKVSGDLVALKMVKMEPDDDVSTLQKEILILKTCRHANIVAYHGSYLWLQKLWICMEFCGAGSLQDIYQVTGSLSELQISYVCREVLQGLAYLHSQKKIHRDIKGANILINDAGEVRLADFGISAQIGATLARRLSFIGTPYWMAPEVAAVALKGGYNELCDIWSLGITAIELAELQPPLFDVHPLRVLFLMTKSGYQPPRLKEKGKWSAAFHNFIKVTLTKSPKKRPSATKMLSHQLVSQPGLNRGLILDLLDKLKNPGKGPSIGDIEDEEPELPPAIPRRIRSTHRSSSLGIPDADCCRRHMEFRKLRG
Nature of the assay: HPK1 enzyme inhibitory ability (ADP-Glo kinase assay). The assay is classed as biochemical. The settings on record: human GST-HPK1 3 ng, ATP 3 uM, 25° C. 2 hours. Put shortly:
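Human GST-HPK1(1-346), 3 ng, reacted with 3 uM ATP and specific substrate in 40 mM Tris-HCl pH 7.4, 20 mM MgCl2, 0.5 mg/mL BSA, 50 uM DTT for 2 h at 25° C. ADP-Glo luminescence read; IC50 (nM) relative to untreated solvent control.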

We go through 15 molecules from patent publication US20220242870A1, “HETEROCYCLE-FUSED PYRIMIDINE DERIVATIVE AND USE THEREOF” (VORONOI Inc., priority 2019, published 2022).

With `CN(C)CCN(C)c1ccc(Nc2nc(N3N=CCC3c3ccccc3)c3sccc3n2)cc1` (stereo not drawn) [Example 2, N-(2-(dimethylamino)ethyl)-N-methyl-N-(4-(5-phenyl-4,5-dihydro-1H-pyrazol-1-yl)thieno[3,2-d]pyrimidin-2-yl)benzene-1,4-diamine], the GI50 (commonly the concentration at which growth is held to half of that of the control) was above 500 nM in assay [1] and at least 250 nM in assay [2]. In assay [3], the 50% inhibitory concentration (IC50) (commonly the concentration that gives 50% inhibition) lay in the range of 250 to 500 nM.
For `C1=NN(c2nc(Nc3ccc(N4CCC(N5CCOCC5)CC4)cc3)nc3ccsc23)C(c2ccccc2)C1` (stereo not drawn) [Example 9, N-(4-(4-morpholinopiperidin-1-yl)phenyl)-4-(5-phenyl-4,5-dihydro-1H-pyrazol-1-yl)thieno[3,2-d]pyrimidin-2-amine], the 50% growth inhibitory concentration (GI50) in assay [1] and in assay [2] was above 500 nM throughout. In assay [3], this molecule returned an IC50 above 500 nM.
In the case of `CN1CCN(C(=O)Nc2ccc(Nc3nc(N4N=CCC4c4ccccc4)c4sccc4n3)cc2)CC1` (stereo not drawn) [Example 20, 4-methyl-N-(4-((4-(5-phenyl-4,5-dihydro-1H-pyrazol-1-yl)thieno[3,2-d]pyrimidin-2-yl)amino)phenyl)piperazine-1-carboxamide], the results for the concentration for 50% growth inhibition (GI50) in assay [1] and in assay [2] were above 500 nM and 250 to 500 nM, respectively. Also, in assay [3], the IC50 was at least 250 nM.
In the same order, the values of `CN1CCN(c2ccc(Nc3nc(N4N=CCC4c4cc5ccccc5cn4)c4sccc4n3)cc2)CC1` (stereo not drawn) [Example 32, 4-(5-(isoquinolin-3-yl)-4,5-dihydro-1H-pyrazol-1-yl)-N-(4-(4-methylpiperazin-1-yl)phenyl)thieno[3,2-d]pyrimidin-2-amine] are above 500 nM, above 500 nM and above 500 nM.
Consider `CN1CCN(c2ccc(Nc3nc(N4N=CCC4c4ccccn4)c4sccc4n3)cc2)CC1` (stereo not drawn) [Example 33, N-(4-(4-methylpiperazin-1-yl)phenyl)-4-(5-(pyridin-2-yl)-4,5-dihydro-1H-pyrazol-1-yl)thieno[3,2-d]pyrimidin-2-amine], for which the GI50 in assay [1] and in assay [2] was above 500 nM each time. Besides, in assay [3], the IC50 is above 500 nM.
On to `CCN1CCN(c2ccc(Nc3nc(N4N=CCC4c4ccccc4)c4sccc4n3)cc2)CC1` (stereo not drawn) [Example 39, N-(4-(4-ethylpiperazin-1-yl)phenyl)-4-(5-phenyl-4,5-dihydro-1H-pyrazol-1-yl)thieno[3,2-d]pyrimidin-2-amine], for which the GI50 in assay [1] was above 500 nM; in assay [2] it was at least 250 nM. In assay [3], this molecule registered an IC50 of at least 250 nM.
For the molecule `COc1cc(Nc2nc(N3N=CCC3c3ccccc3)c3sccc3n2)ccc1N1CCN(C)CC1` (stereo not drawn) [Example 40, N-(3-methoxy-4-(4-methylpiperazin-1-yl)phenyl)-4-(5-phenyl-4,5-dihydro-1H-pyrazol-1-yl)thieno[3,2-d]pyrimidin-2-amine], the GI50 is above 500 nM in assay [1] and at least 250 nM in assay [2]. Further, the IC50 in assay [3] lay within 250 to 500 nM.
For the molecule `CCN1CCN(c2ccc(Nc3nc(N4N=CCC4c4ccccc4)c4sccc4n3)c(OC)c2)CC1` (stereo not drawn) [Example 41, N-(4-(4-ethylpiperazin-1-yl)-2-methoxyphenyl)-4-(5-phenyl-4,5-dihydro-1H-pyrazol-1-yl)thieno[3,2-d]pyrimidin-2-amine], the GI50 was above 500 nM in assay [1] and at least 250 nM in assay [2]. This molecule also registered an IC50 in assay [3] of at least 250 nM.
With `CCN(CC)CCOc1c(C)cc(Nc2nc(N3N=CCC3c3ccccc3)c3sccc3n2)cc1C` (stereo not drawn) [Example 46, N-(4-(2-(diethylamino)ethoxy)-3,5-dimethylphenyl)-4-(5-phenyl-4,5-dihydro-1H-pyrazol-1-yl)thieno[3,2-d]pyrimidin-2-amine], the GI50 in assay [1] is above 500 nM; in assay [2] it was 250 to 500 nM. This molecule also registered an IC50 in assay [3] above 500 nM.
On to `CN1CCc2cc(Nc3nc(N4OCC[C@H]4c4ccccc4)c4cc[nH]c4n3)ccc2C1` [Example 109, (S)-2-methyl-N-(4-(3-phenylisoxazolidin-2-yl)-7H-pyrrolo[2,3-d]pyrimidin-2-yl)-1,2,3,4-tetrahydroisoquinolin-6-amine], for which the GI50 in assay [4] is above 500 nM; in assay [2], at least 250 nM. Moreover, the IC50 in assay [5] and in assay [3] was at least 250 nM in each case.
As for `c1ccc([C@@H]2CCON2c2nc(Nc3ccc4c(c3)CCNC4)nc3[nH]ccc23)cc1` [Example 110, (S)-N-(4-(3-phenylisoxazolidin-2-yl)-7H-pyrrolo[2,3-d]pyrimidin-2-yl)-1,2,3,4-tetrahydroisoquinolin-6-amine], the GI50 in assay [4] is 250 to 500 nM; in assay [2], above 500 nM. Also, the IC50 in assay [5] and in assay [3] was at least 250 nM in each case.
In the case of `CC(C)(O)CN1CCc2cc(Nc3nc(N4OCC[C@H]4c4ccccc4)c4cc[nH]c4n3)ccc2C1` [Example 111, (S)-2-methyl-1-(6-((4-(3-phenylisoxazolidin-2-yl)-7H-pyrrolo[2,3-d]pyrimidin-2-yl)amino)-3,4-dihydroisoquinolin-2(1H)-yl)propan-2-ol], the GI50 is above 500 nM in assay [4] and at least 250 nM in assay [2]. In addition, the IC50 in assay [5] is at least 250 nM; in assay [3] it was 250 to 500 nM.
Turning to `Clc1c[nH]c2nc(Nc3ccc4c(c3)CCNC4)nc(N3OCC[C@H]3c3ccccc3)c12` [Example 117, (S)-N-(5-chloro-4-(3-phenylisoxazolidin-2-yl)-7H-pyrrolo[2,3-d]pyrimidin-2-yl)-1,2,3,4-tetrahydroisoquinolin-6-amine], the GI50 in assay [4] was at least 250 nM; in assay [2] it was above 500 nM. The IC50 in assay [5] and in assay [3] was at least 250 nM throughout.
For the molecule `CN1CCN(C2CCN(c3ccc(Nc4nc(N5OCC[C@H]5c5ccccc5)c5c(C#N)c[nH]c5n4)cc3)CC2)CC1` [Example 119, (S)-2-((4-(4-(4-methylpiperazin-1-yl)piperidin-1-yl)phenyl)amino)-4-(3-phenylisoxazolidin-2-yl)-7H-pyrrolo[2,3-d]pyrimidine-5-carbonitrile], the GI50 is above 500 nM in assay [4] and at least 250 nM in assay [2]. The IC50 in assay [5] and in assay [3] was at least 250 nM each time.
Regarding `N#Cc1c[nH]c2nc(Nc3ccc4c(c3)CCNC4)nc(N3OCC[C@H]3c3ccccc3)c12` [Example 120, (S)-4-(3-phenylisoxazolidin-2-yl)-2-((1,2,3,4-tetrahydroisoquinolin-6-yl)amino)-7H-pyrrolo[2,3-d]pyrimidine-5-carbonitrile], the GI50 in assay [4] and in assay [2] was at least 250 nM in each case. Also, the half-maximal inhibitory concentration (IC50) in assay [5] and in assay [3] was at least 250 nM throughout.
